The values that follow come from patent US8143263B2, “Therapeutic agents” (Astrazeneca AB, priority 2008, dated 2012).

This experiment deals with T1, recombinant human pancreatic GLK (Homo sapiens, UniProt P35557).
T1 sequence (P35557 1-465): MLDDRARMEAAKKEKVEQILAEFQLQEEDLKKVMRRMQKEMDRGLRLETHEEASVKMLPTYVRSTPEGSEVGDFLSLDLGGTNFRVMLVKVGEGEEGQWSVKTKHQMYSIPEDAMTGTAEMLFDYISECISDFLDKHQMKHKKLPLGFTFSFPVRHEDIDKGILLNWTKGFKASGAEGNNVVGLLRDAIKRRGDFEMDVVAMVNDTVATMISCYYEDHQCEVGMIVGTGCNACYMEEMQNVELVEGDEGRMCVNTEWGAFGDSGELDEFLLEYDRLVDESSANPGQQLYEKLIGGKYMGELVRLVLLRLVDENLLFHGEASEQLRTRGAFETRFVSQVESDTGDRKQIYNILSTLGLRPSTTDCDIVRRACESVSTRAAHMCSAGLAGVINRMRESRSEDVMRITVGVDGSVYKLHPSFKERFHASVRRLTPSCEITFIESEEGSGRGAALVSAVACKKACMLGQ
The experiment can be described thus: biochemical.
In general, EC50 refers to the concentration needed to bring the measured effect to its halfway point. On to `CC(C)OC[C@H](Oc1ncnc2c1cnn2-c1ncccc1Cl)C(=O)Nc1ccc(C#N)cn1` [Example 127j, (2S)-2-[1-(3-chloro-2-pyridyl)pyrazolo[4,5-e]pyrimidin-4-yl]oxy-N-(5-cyano-2-pyridyl)-3-isopropoxy-propanamide], for which the 50% effective concentration (EC50) turned out to be 580 nM.
Regarding `CC(C)OC[C@H](Oc1ncnc2c1cnn2-c1ncccc1Cl)C(=O)Nc1ccccn1` [Example 127k, (2S)-2-[1-(3-chloro-2-pyridyl)pyrazolo[4,5-e]pyrimidin-4-yl]oxy-3-isopropoxy-N-(2-pyridyl)propanamide], the EC50 is 560 nM.
For `CC(C)OC[C@H](Oc1ncnc2c1cnn2-c1ncccc1Cl)C(=O)Nc1ccc(F)cn1` [Example 127l, (2S)-2-[1-(3-chloro-2-pyridyl)pyrazolo[4,5-e]pyrimidin-4-yl]oxy-N-(5-fluoro-2-pyridyl)-3-isopropoxy-propanamide] the value was 500 nM; for `CCOC[C@H](Oc1ncnc2c1cnn2-c1ccncc1C)C(=O)Nc1ccc(Cl)cn1` [Example 128, (2S)—N-(5-Chloropyridin-2-yl)-3-ethoxy-2-[1-(3-methylpyridin-4-yl)pyrazolo[4,5-e]pyrimidin-4-yl]oxypropanamide], 920 nM.
With `CCOC[C@H](Oc1ncnc2c1cnn2-c1ncccc1C)C(=O)Nc1ccc(Cl)cn1` [Example 128a, (2S)—N-(5-chloropyridin-2-yl)-3-ethoxy-2-(1-(3-methylpyridin-2-yl)-1H-pyrazolo[3,4-d]pyrimidin-4-yloxy)propanamide], the EC50 was 620 nM.
For `Cc1ccc(NC(=O)[C@H](COC(C)C)Oc2ncnc3c2cnn3-c2ccccc2S(C)(=O)=O)nc1` [Example 129, (2S)-3-isopropoxy-N-(5-methylpyridin-2-yl)-2-(1-(2-(methylsulfonyl)phenyl)-1H-pyrazolo[3,4-d]pyrimidin-4-yloxy)propanamide] the value was 1300 nM; for `CCOC[C@H](Oc1ncnc2c1cnn2-c1ccccc1S(C)(=O)=O)C(=O)Nc1ccc(Cl)cn1` [Example 130, (2S)—N-(5-chloropyridin-2-yl)-3-ethoxy-2-(1-(2-(methylsulfonyl)phenyl)-1H-pyrazolo[3,4-d]pyrimidin-4-yloxy)propanamide], 1100 nM.
Consider `Cc1ccc(NC(=O)[C@H](CCCO)Oc2ncnc3c2cnn3-c2ncccc2Cl)nc1` [Example 131, (2S)-2-[1-(3-chloropyridin-2-yl)pyrazolo[4,5-e]pyrimidin-4-yl]oxy-5-hydroxy-N-(5-methylpyridin-2-yl)pentanamide], for which the EC50 was 410 nM.
For `CCOC[C@H](Oc1ncnc2c1cnn2-c1ccccc1C(F)(F)F)C(=O)Nc1ccc(C#N)cn1` [Example 132, (2S)—N-(5-cyanopyridin-2-yl)-3-ethoxy-2-[1-[2-(trifluoromethyl)phenyl]pyrazolo[4,5-e]pyrimidin-4-yl]oxypropanamide] the value was 470 nM; for `CCOC[C@H](Oc1ncnc2c1cnn2-c1ccccc1C(F)(F)F)C(=O)Nc1cnc(C)cn1` [Example 133, (2S)-3-ethoxy-N-(5-methylpyrazin-2-yl)-2-[1-[2-(trifluoromethyl)phenyl]pyrazolo[4,5-e]pyrimidin-4-yl]oxypropanamide], 1100 nM.
For `CCOC[C@H](Oc1ncnc2c1cnn2-c1ncccc1C(F)(F)F)C(=O)Nc1ccc(Cl)cn1` [Example 134, (2S)—N-(5-chloropyridin-2-yl)-3-ethoxy-2-[1-[3-(trifluoromethyl)pyridin-2-yl]pyrazolo[4,5-e]pyrimidin-4-yl]oxypropanamide] the value was 440 nM; for `Cc1ccc(NC(=O)[C@H](COC(C)C)Oc2ncnc3c2cnn3-c2ccncc2C)nc1` [Example 135, (2S)—N-(5-methylpyridin-2-yl)-2-[1-(3-methylpyridin-4-yl)pyrazolo[4,5-e]pyrimidin-4-yl]oxy-3-propan-2-yloxypropanamide], 5900 nM.
On to `Cc1cnc(NC(=O)[C@H](COC2CCC2)Oc2ncnc3c2cnn3-c2ccncc2C)cn1` [Example 136, (2S)-3-cyclobutyloxy-N-(5-methylpyrazin-2-yl)-2-[1-(3-methylpyridin-4-yl)pyrazolo[4,5-e]pyrimidin-4-yl]oxypropanamide], for which the 50% effective concentration (EC50) was found to be 2100 nM.
For `Cc1cnc(NC(=O)[C@H](COC2CCC2)Oc2ncnc3c2cnn3-c2ncccc2C(F)(F)F)cn1` [Example 137, (2S)-3-cyclobutyloxy-N-(5-methylpyrazin-2-yl)-2-[1-[3-(trifluoromethyl)pyridin-2-yl]pyrazolo[4,5-e]pyrimidin-4-yl]oxypropanamide] the value was 350 nM; for `Cc1cnc(NC(=O)[C@H](COC2CCC2)Oc2ncnc3c2cnn3-c2ncc(Cl)cc2C(F)(F)F)cn1` [Example 138, (2S)-2-[1-[5-chloro-3-(trifluoromethyl)pyridin-2-yl]pyrazolo[4,5-e]pyrimidin-4-yl]oxy-3-cyclobutyloxy-N-(5-methylpyrazin-2-yl)propanamide], 810 nM.
For `CCOC[C@H](Oc1ncnc2c1cnn2-c1ncccc1Cl)C(=O)Nc1ccc(S(C)(=O)=O)cn1` [Example 139, (2S)-2-(1-(3-chloropyridin-2-yl)-1H-pyrazolo[3,4-d]pyrimidin-4-yloxy)-3-ethoxy-N-(5-(methylsulfonyl)pyridin-2-yl)propanamide] the value was 1400 nM; for `Cc1cnc(NC(=O)[C@H](COC2CCC2)Oc2ncnc3c2cnn3-c2ccccc2S(C)(=O)=O)cn1` [Example 140, (2S)-3-cyclobutoxy-N-(5-methylpyrazin-2-yl)-2-(1-(2-(methylsulfonyl)phenyl)-1H-pyrazolo[3,4-d]pyrimidin-4-yloxy)propanamide], 1200 nM.
For `Cc1cnc(NC(=O)[C@H](COC2CCC2)Oc2ncnc3c2cnn3-c2ncccc2C)cn1` [Example 141, (2S)-3-cyclobutoxy-N-(5-methylpyrazin-2-yl)-2-(1-(3-methylpyridin-2-yl)-1H-pyrazolo[3,4-d]pyrimidin-4-yloxy)propanamide] the value was 340 nM; for `Cc1cnc(NC(=O)[C@H](COC2CCC2)Oc2ncnc3c2cnn3-c2ccccc2)cn1` [Example 142, (S)-3-cyclobutoxy-N-(5-methylpyrazin-2-yl)-2-(1-phenyl-1H-pyrazolo[3,4-d]pyrimidin-4-yloxy)propanamide], 2400 nM; for `Cc1ccc(NC(=O)[C@H](CCO)Oc2ncnc3c2cnn3-c2ncccc2Cl)nc1` [Example 143, (2S)-2-[1-(3-chloro-2-pyridyl)pyrazolo[4,5-e]pyrimidin-4-yl]oxy-4-hydroxy-N-(5-methyl-2-pyridyl)butanamide], 180 nM.
For the molecule `Cc1cnc(NC(=O)[C@H](CCO)Oc2ncnc3c2cnn3-c2ncccc2Cl)cn1` [Example 143a, (2S)-2-[1-(3-chloro-2-pyridyl)pyrazolo[4,5-e]pyrimidin-4-yl]oxy-4-hydroxy-N-(5-methylpyrazin-2-yl)butanamide], the EC50 was 2600 nM.
For `O=C(Nc1ccc(Cl)cn1)[C@H](CCO)Oc1ncnc2c1cnn2-c1ncccc1Cl` [Example 143b, (2S)-N-(5-chloro-2-pyridyl)-2-[1-(3-chloro-2-pyridyl)pyrazolo[4,5-e]pyrimidin-4-yl]oxy-4-hydroxy-butanamide] the value was 260 nM; for `O=C(Nc1ccccn1)[C@H](CCO)Oc1ncnc2c1cnn2-c1ncccc1Cl` [Example 143c, (2S)-2-[1-(3-chloro-2-pyridyl)pyrazolo[4,5-e]pyrimidin-4-yl]oxy-4-hydroxy-N-(2-pyridyl)butanamide], 610 nM; for `O=C(Nc1ccc(F)cn1)[C@H](CCO)Oc1ncnc2c1cnn2-c1ncccc1Cl` [Example 143d, (2S)-2-[1-(3-chloro-2-pyridyl)pyrazolo[4,5-e]pyrimidin-4-yl]oxy-N-(5-fluoro-2-pyridyl)-4-hydroxy-butanamide], 590 nM.
For `N#Cc1ccc(NC(=O)[C@H](CCO)Oc2ncnc3c2cnn3-c2ncccc2Cl)nc1` [Example 143e, (2S)-2-[1-(3-chloro-2-pyridyl)pyrazolo[4,5-e]pyrimidin-4-yl]oxy-N-(5-cyano-2-pyridyl)-4-hydroxy-butanamide] the value was 530 nM; for `O=C(Nc1ccncn1)[C@H](CCO)Oc1ncnc2c1cnn2-c1ncccc1Cl` [Example 143f, (2S)-2-[1-(3-chloro-2-pyridyl)pyrazolo[4,5-e]pyrimidin-4-yl]oxy-4-hydroxy-N-pyrimidin-4-yl-butanamide], 980 nM; for `Cc1ccc(NC(=O)[C@H](COC2CCC2)Oc2ncnc3c2cnn3-c2nccnc2C)nc1` [Example 144, (2S)-3-(cyclobutoxy)-2-[1-(3-methylpyrazin-2-yl)pyrazolo[4,5-e]pyrimidin-4-yl]oxy-N-(5-methyl-2-pyridyl)propanamide], 510 nM.
For `Cc1ccc(NC(=O)[C@H](CCO)Oc2ncnc3c2cnn3-c2ccccc2Cl)nc1` [Example 145, (2S)-2-[1-(2-chlorophenyl)pyrazolo[4,5-e]pyrimidin-4-yl]oxy-4-hydroxy-N-(5-methyl-2-pyridyl)butanamide] the value was 230 nM; for `Cc1ccc(NC(=O)[C@H](COC(C)C)Oc2ncnc3c2cnn3-c2cccnc2C)nc1` [Example 146, (2S)-3-isopropoxy-N-(5-methyl-2-pyridyl)-2-[1-(2-methyl-3-pyridyl)pyrazolo[4,5-e]pyrimidin-4-yl]oxy-propanamide], 960 nM; for `CCOC[C@H](Oc1ncnc2c1cnn2-c1ncccc1Cl)C(=O)Nc1ccc(C(=O)N(C)C)cn1` [Example 147, 6-[[(2S)-2-[1-(3-chloro-2-pyridyl)pyrazolo[4,5-e]pyrimidin-4-yl]oxy-3-ethoxy-propanoyl]amino]-N,N-dimethyl-pyridine-3-carboxamide], 7800 nM.
